This assay concerns the target T1, Tyrosine-protein phosphatase non-receptor type 22 (Homo sapiens, UniProt Q9Y2R2).
T1 sequence (Q9Y2R2 whole entry): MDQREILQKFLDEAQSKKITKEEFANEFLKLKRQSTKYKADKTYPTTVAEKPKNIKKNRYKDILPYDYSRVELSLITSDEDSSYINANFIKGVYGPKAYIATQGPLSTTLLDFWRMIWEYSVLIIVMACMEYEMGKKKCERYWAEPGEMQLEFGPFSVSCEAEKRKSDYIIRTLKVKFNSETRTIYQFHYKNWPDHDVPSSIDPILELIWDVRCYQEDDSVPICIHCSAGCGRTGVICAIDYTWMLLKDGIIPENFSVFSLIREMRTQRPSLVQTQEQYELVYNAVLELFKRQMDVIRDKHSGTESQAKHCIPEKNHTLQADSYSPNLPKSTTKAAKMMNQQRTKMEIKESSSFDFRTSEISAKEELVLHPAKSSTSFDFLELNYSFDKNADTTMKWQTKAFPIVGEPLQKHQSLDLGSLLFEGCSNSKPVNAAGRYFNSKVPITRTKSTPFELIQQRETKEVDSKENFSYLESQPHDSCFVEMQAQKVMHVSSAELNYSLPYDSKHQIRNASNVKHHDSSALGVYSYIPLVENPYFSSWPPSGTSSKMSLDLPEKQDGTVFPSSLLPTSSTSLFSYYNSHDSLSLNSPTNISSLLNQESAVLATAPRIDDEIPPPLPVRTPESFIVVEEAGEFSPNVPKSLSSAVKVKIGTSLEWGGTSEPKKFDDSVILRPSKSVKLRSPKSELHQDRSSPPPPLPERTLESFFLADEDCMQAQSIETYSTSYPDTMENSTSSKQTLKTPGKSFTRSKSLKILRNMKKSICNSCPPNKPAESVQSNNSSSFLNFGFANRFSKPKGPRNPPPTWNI
Nature of the assay: Inhibition of N-terminal His-tagged LYP catalytic domain (1 to 294 residues) (unknown origin) expressed in Escherichia coli BL21 (DE3) cells using pNPP as substrate by absorbance based plate reader analysis.

Turning to `O=C(O)c1cc2cc(N(Cc3ccc(-c4ccco4)cc3)S(=O)(=O)c3ccc(-c4ccccc4)cc3)ccc2o1`, inhibition was half-maximal at 7.25 µM (IC50). This lies in the single-digit micromolar range. On to `O=C(O)c1cc2cc(N(Cc3ccc(-c4ccccc4)cc3)S(=O)(=O)c3cc(Cl)c(F)cc3F)ccc2o1`, for which the IC50 – broadly, the point on the concentration scale where inhibition reaches its midpoint – was found to be 18.7 µM. In the case of `O=C(O)c1cc2cc(NS(=O)(=O)c3ccc(-c4ccccc4)cc3)ccc2o1` it was above 20 µM. `COc1ccc(-c2ccc(CN(c3ccc4oc(C(=O)O)cc4c3)S(=O)(=O)c3ccc(-c4ccccc4)cc3)cc2)cc1` came in with an IC50 of 5.47 µM. In the case of `O=C(O)c1cc2cc(NS(=O)(=O)c3ccc(Cl)c([N+](=O)[O-])c3)ccc2o1` it was above 20 µM. In the case of `O=C(O)c1cc2cc(N(Cc3ccc(-c4ccccc4)cc3)S(=O)(=O)c3ccc(Cl)nc3)ccc2o1` it was 7.74 µM. In the case of `O=C(O)c1cc2cc(N(Cc3ccc(-c4ccccc4)cc3)S(=O)(=O)c3ccc(Cl)cc3)ccc2o1` it was 9.04 µM; in that of `O=C(O)c1cc2cc(N(Cc3ccc(-c4ccccc4)cc3)S(=O)(=O)c3ccc(O)c([N+](=O)[O-])c3)ccc2o1`, 18.7 µM. As for `CN(c1ccc2oc(C(=O)O)cc2c1)S(=O)(=O)c1ccc(Cl)c([N+](=O)[O-])c1`, the IC50 was above 20 µM. `CC(C)CN(c1ccc2oc(C(=O)O)cc2c1)S(=O)(=O)c1ccc(Cl)c([N+](=O)[O-])c1` yielded an IC50 above 20 µM. The value for `O=C(O)c1cc2cc(N(Cc3ccc(-c4ccccc4)cc3)S(=O)(=O)c3ccc(Cl)c([N+](=O)[O-])c3)ccc2o1` was 9.34 µM. The value for `CN(c1ccc2oc(C(=O)O)cc2c1)S(=O)(=O)c1ccc(-c2ccccc2)cc1` was above 20 µM; that for `CCCCCCNc1ccc(S(=O)(=O)N(Cc2ccccc2)c2ccc3oc(C(=O)O)cc3c2)cc1[N+](=O)[O-]` was 5.03 µM; that for `O=C(O)c1cc2cc(N(Cc3ccc(-c4ccccc4)cc3)S(=O)(=O)c3ccccc3Cl)ccc2o1` was 15.1 µM. `O=C(O)c1cc2cc(N(Cc3ccc(Oc4ccccc4)cc3)S(=O)(=O)c3ccc(Cl)c([N+](=O)[O-])c3)ccc2o1` showed an IC50 of 5.67 µM.

In turn, `O=C(O)c1cc2cc(N(Cc3ccc(-c4ccccc4)cc3)S(=O)(=O)c3cccc(Cl)c3)ccc2o1` registered an IC50 above 20 µM. The value for `O=C(O)c1cc2cc(N(Cc3cccc(Br)c3)S(=O)(=O)c3ccc(NCCOc4ccccc4)c([N+](=O)[O-])c3)ccc2o1` was 6.7 µM. The value for `O=C(O)c1cc2cc(N(Cc3ccccc3)S(=O)(=O)c3ccc(Cl)c([N+](=O)[O-])c3)ccc2o1` was above 20 µM; that for `O=C(O)c1cc2cc(N(Cc3ccc(-c4ccccc4)cc3)S(=O)(=O)c3ccc(-c4ccccc4)cc3)ccc2o1` was 5.07 µM. In the case of `O=C(O)c1cc2cc(N(Cc3ccccc3)S(=O)(=O)c3ccc(Cl)cc3)ccc2o1` it was above 20 µM. In turn, `O=C(O)c1cc2cc(N(Cc3ccc(-c4ccc(Cl)cc4)cc3)S(=O)(=O)c3ccc(-c4ccccc4)cc3)ccc2o1` showed an IC50 of 4.36 µM. `O=C(O)c1cc2cc(N(Cc3ccc(-c4ccccc4)cc3)S(=O)(=O)c3ccc(Br)cc3)ccc2o1`: half-maximal inhibition (IC50) required 7.87 µM. In the case of `O=C(O)c1cc2cc(N(Cc3ccc(-c4cccc(Cl)c4Cl)cc3)S(=O)(=O)c3ccc(Cl)c([N+](=O)[O-])c3)ccc2o1` it was 5.91 µM; in that of `CC(C)CN(c1ccc2oc(C(=O)O)cc2c1)S(=O)(=O)c1ccc(Cl)cc1`, above 20 µM. The value for `O=C(O)c1cc2cc(N(Cc3ccccc3)S(=O)(=O)c3ccc(NCCOc4ccccc4)c([N+](=O)[O-])c3)ccc2o1` was 10.3 µM; that for `O=C(O)c1cc2cc(NS(=O)(=O)c3ccc(Cl)cc3)ccc2o1` was above 20 µM; that for `O=C(O)c1cc2cc(N(Cc3ccc(-c4ccccc4)cc3)S(=O)(=O)c3ccc(-c4cccs4)cc3)ccc2o1` was 8.87 µM.

On to `O=C(O)c1cc2cc(N(Cc3ccc(Oc4ccccc4)cc3)S(=O)(=O)c3ccc(-c4ccccc4)cc3)ccc2o1`, for which the IC50 turned out to be 10.7 µM. The value for `O=C(O)c1cc2cc(N(Cc3ccccc3)S(=O)(=O)c3ccc(-c4ccccc4)cc3)ccc2o1` was above 20 µM; that for `CN(c1ccc2oc(C(=O)O)cc2c1)S(=O)(=O)c1ccc(Cl)cc1` was above 20 µM; that for `O=C(O)c1cc2cc(N(Cc3ccc(-c4ccc(Cl)cc4)cc3)S(=O)(=O)c3ccc(Cl)c([N+](=O)[O-])c3)ccc2o1` was 6.78 µM.

Compound `CCCCCCNc1ccc(S(=O)(=O)N(Cc2ccc(-c3ccccc3)cc2)c2ccc3oc(C(=O)O)cc3c2)cc1[N+](=O)[O-]` showed an IC50 of 5.56 µM. For the compound `CN(c1ccc2oc(C(=O)O)cc2c1)S(=O)(=O)c1ccc(NCCN2CCOCC2)c([N+](=O)[O-])c1`, the IC50 is above 20 µM. The value for `CC(C)CN(c1ccc2oc(C(=O)O)cc2c1)S(=O)(=O)c1ccc(-c2ccccc2)cc1` was above 20 µM.

The values are drawn from ChEMBL document CHEMBL5620412, “Discovery of benzofuran-2-carboxylic acid derivatives as lymphoid tyrosine phosphatase (LYP) inhibitors for cancer immunotherapy” (Eur J Med Chem, 2023).
